Data published in DBAASP.
Converted amounts (≈) assume the structure as drawn.

Experiments:
Assay in all cases: ≥ marks a high value that may be exact or a test limit, other limits are often not marked, values filed in µg/mL are converted to µM
[1] = tested on: Acinetobacter baumannii ATCC 19606
[2] = tested on: Acinetobacter baumannii
[3] = tested on: Bacillus subtilis ATCC 6051
[4] = tested on: Candida albicans ATCC 90028
[5] = tested on: Cryptococcus neoformans ATCC 208821
[6] = tested on: Escherichia coli ATCC 25922
[7] = tested on: Klebsiella pneumoniae ATCC 13883
[8] = tested on: Klebsiella pneumoniae ATCC 700603
[9] = tested on: Klebsiella pneumoniae ATCC BAA-2146
[10] = tested on: Klebsiella pneumoniae
[11] = tested on: Pseudomonas aeruginosa ATCC 27853
[12] = tested on: Pseudomonas aeruginosa
[13] = tested on: Staphylococcus aureus ATCC 43300
[14] = tested on: Aureobasidium pullulans
[15] = tested on: Candida albicans ATCC 10231
[16] = tested on: Corynebacterium glutamicum ATCC 13032
[17] = tested on: Staphylococcus aureus ATCC 9144
[18] = tested on: Acinetobacter baumannii CCARM 12035
[19] = tested on: Acinetobacter baumannii KCTC 2508
[20] = tested on: Bacillus subtilis KCTC 3068
[21] = tested on: Escherichia coli CCARM 1229
[22] = tested on: Escherichia coli KCTC 1682
[23] = tested on: Pseudomonas aeruginosa CCARM 2002
[24] = tested on: Pseudomonas aeruginosa KCTC 2004
[25] = tested on: Salmonella typhimurium CCARM 8007
[26] = tested on: Salmonella typhimurium KCTC 1926
[27] = tested on: Staphylococcus aureus CCARM 3126
[28] = tested on: Staphylococcus aureus KCTC 1621
[29] = tested on: Staphylococcus epidermidis KCTC 1917
[30] = tested on: Enterococcus faecalis ATCC 29212
[31] = tested on: Escherichia coli UB1005
[32] = tested on: Pseudomonas aeruginosa K799
[33] = tested on: Salmonella enterica subsp. enterica serovar Typhimurium ATCC 14028s
[34] = tested on: Staphylococcus aureus ATCC 25923
[35] = tested on: Staphylococcus epidermidis C621

Row | SMILES | MIC [1] [µM] | MIC [2] [µM] | MIC [3] [µM] | MIC [4] [µM] | MIC [5] [µM] | MIC [6] [µM] | MIC [7] [µM] | MIC [8] [µM] | MIC [9] [µM] | MIC [10] [µM] | MIC [11] [µM] | MIC [12] [µM] | MIC [13] [µM] | further results
1 | CC[C@H](C)[C@@H]1NC(=O)CNC(=O)[C@H](C)NC(=O)[C@H](Cc2ccc(O)cc2)NC(=O)[C@@H]2CSSC[C@H](NC1=O)C(=O)N[C@@H](Cc1ccc(O)cc1)C(=O)N[C@@H](CCCN=C(N)N)C(=O)N[C@@H](CCCN=C(N)N)C(=O)N[C@H](C(=O)N[C@@H](CCCN=C(N)N)C(=O)O)CSSC[C@H](NC(=O)[C@H](Cc1c[nH]c3ccccc13)NC(=O)[C@@H](N)CCCCN)C(=O)N[C@@H](Cc1ccccc1)C(=O)N[C@@H](CCCN=C(N)N)C(=O)N[C@@H](CCCN=C(N)N)C(=O)N2 [KWCFRRCYAGICYRRCR] | 7.14 (≈ 16 µg/mL) | 7.14 (≈ 16 µg/mL) | 0.112 (≈ 0.25 µg/mL) | 7.14 (≈ 16 µg/mL) | 1.79 (≈ 3.99 µg/mL) | 0.223 (≈ 0.499 µg/mL) | 7.14 (≈ 16 µg/mL) | 7.14 (≈ 16 µg/mL) | 7.14 (≈ 16 µg/mL) | > 7.14 | > 7.14 | > 7.14 | > 7.14 | 
2 | CC[C@H](C)[C@@H]1NC(=O)CNC(=O)[C@H](CCCN=C(N)N)NC(=O)[C@H](Cc2ccc(O)cc2)NC(=O)[C@@H]2CSSC[C@H](NC1=O)C(=O)N[C@@H](Cc1ccc(O)cc1)C(=O)N[C@@H](CCCN=C(N)N)C(=O)N[C@@H](CCCN=C(N)N)C(=O)N[C@H](C(=O)N[C@@H](CCCN=C(N)N)C(=O)O)CSSC[C@H](NC(=O)[C@H](Cc1c[nH]c3ccccc13)NC(=O)[C@@H](N)CCCCN)C(=O)N[C@@H](Cc1ccccc1)C(=O)N[C@@H](CCCN=C(N)N)C(=O)N[C@@H](C)C(=O)N2 [KWCFRACYRGICYRRCR] | 0.112 (≈ 0.25 µg/mL) | 0.223 (≈ 0.499 µg/mL) | 0.112 (≈ 0.25 µg/mL) | 3.57 (≈ 7.99 µg/mL) | 0.446 (≈ 0.998 µg/mL) | 0.112 (≈ 0.25 µg/mL) | 0.112 (≈ 0.25 µg/mL) | 0.446 (≈ 0.998 µg/mL) | 0.446 (≈ 0.998 µg/mL) | 7.14 (≈ 16 µg/mL) | 0.446 (≈ 0.998 µg/mL) | 0.893 (≈ 2 µg/mL) | 1.79 (≈ 3.99 µg/mL) | 
3 | CC(C)[C@H](NC(=O)[C@H](CCCCN)NC(=O)[C@H](C)NC(=O)[C@@H](NC(=O)[C@@H](NC(=O)[C@H](CCCN=C(N)N)NC(=O)[C@H](CCCN=C(N)N)NC(=O)[C@H](Cc1c[nH]c2ccccc12)NC(=O)[C@@H](N)Cc1c[nH]c2ccccc12)[C@@H](C)O)C(C)C)C(=O)N[C@@H](CCCN=C(N)N)C(=O)N[C@@H](CC(N)=O)C(=O)N[C@@H](C)C(=O)NCC(=O)N[C@@H](CCCN=C(N)N)C(=O)N[C@@H](CCCCN)C(N)=O [WWRRTVAKVRNAGRK] |  |  |  |  |  | 6.3 (≈ 11.9 µg/mL) |  |  |  |  | 25 (≈ 47.1 µg/mL) |  |  | MIC [14]: ≥ 100 µM; MIC [15]: 100 µM (≈ 188 µg/mL); MIC [16]: 0.4 µM (≈ 0.753 µg/mL); MIC [17]: 12.5 µM (≈ 23.5 µg/mL)
4 | CC[C@H](C)[C@H](NC(=O)[C@H](CCCCN)NC(=O)[C@H](CCCCN)NC(=O)[C@H](Cc1ccccc1)NC(=O)[C@@H](NC(=O)[C@H](CCCCN)NC(=O)[C@H](Cc1c[nH]c2ccccc12)NC(=O)[C@@H](N)CCCN=C(N)N)[C@@H](C)CC)C(=O)N[C@@H](CCC(=O)O)C(=O)N[C@@H](CCCCN)C(=O)N[C@H](C(=O)NCC(N)=O)C(C)C [RWKIFKKIEKVG] |  |  |  |  |  |  |  |  |  |  |  |  |  | MIC [18]: 16 µM (≈ 24.5 µg/mL); MIC [19]: ≥ 64 µM; MIC [20]: ≥ 64 µM; MIC [21]: ≥ 64 µM; MIC [22]: 16 µM (≈ 24.5 µg/mL); MIC [23]: 16 µM (≈ 24.5 µg/mL); MIC [24]: 8 µM (≈ 12.2 µg/mL); MIC [25]: ≥ 32 µM; MIC [26]: ≥ 64 µM; MIC [27]: ≥ 64 µM; MIC [28]: 16 µM (≈ 24.5 µg/mL); MIC [29]: ≥ 64 µM
5 | CC[C@H](C)[C@H](NC(=O)[C@@H]1CSSC[C@H](NC(=O)[C@@H](NC(=O)[C@@H](N)CCCN=C(N)N)[C@@H](C)CC)C(=O)N[C@@H](CCCN=C(N)N)C(=O)N[C@@H]([C@@H](C)CC)C(=O)N[C@@H](C(C)C)C(=O)N[C@@H](C(C)C)C(=O)N[C@@H]([C@@H](C)CC)C(=O)N[C@@H](CCCN=C(N)N)C(=O)N1)C(=O)N[C@@H](CCCN=C(N)N)C(N)=O [RICRIVVIRCIR] |  |  |  |  |  |  |  |  |  |  |  |  |  | MIC [30]: > 21.3 µM; MIC [31]: 2.67 µM (≈ 3.99 µg/mL); MIC [32]: 10.7 µM (≈ 16 µg/mL); MIC [33]: 5.33 µM (≈ 7.98 µg/mL); MIC [34]: 21.3 µM (≈ 31.9 µg/mL); MIC [35]: 5.33 µM (≈ 7.98 µg/mL)
